Assay results as given in US20190031717A1, “MULTI-FUNCTIONAL FUSION POLYPEPTIDE, PREPARATION METHOD THEREOF, AND APPLICATION OF SAME” (NANJING ANJI BIOLOGICAL TECHNOLOGY CO., LTD, priority 2016, published 2019).

test system: A549 cells induced by TGF-β1 (lung fibrosis model); test: Hydroxyproline content in TGF-β1-induced A549 pulmonary fibrosis cell model; format: cell-based, human; settings: not given
Experimental: Human non-small cell lung cancer cells A549 were cultured in DMEM medium containing 10% (volume fraction) fetal bovine serum, cultured in a carbon dioxide incubator with a volume fraction of 5% at 37° C., and changed once every other day, depending on cell density. A549 cells in logarithmic growth phase were digested with 0.25% trypsin to prepare a cell suspension, adjusted to a cell concentration of 1×10^9 cells/L, and seeded at a density of 4×10^5 cells/cm2 in a cell culture dish of 90 cm^2. The cells were randomly divided into two groups: (1) control group: cultured in DMEM containing 10% (volume fraction) fetal bovine serum; (2) model group: containing 10% (volume fraction) fetal bovine serum, transforming growth factor (TGF-β1, final concentration 5 μg/L) was cultured in DMEM. The cells were cultured at 37° C. in a volumetric 5% carbon dioxide incubator, and changed every other day, depending on the cell density. Cell morphology was observed daily using an inverted microscope to determine when the model was established. When A549 cells are changed from the cobblestone shape of the original epithelial cells to the long spindle shape of the interstitial cells, the modeling is successfully established.
After 48 hours of addition of the polypeptides, the cells of the control group, the model group, and the administration group were collected for subsequent measurement of molecular markers related to pulmonary fibrosis.
Hydroxyproline accounts for 13.4% of collagen, so the content of hydroxyproline can reflect the accumulation of collagen during pulmonary fibrosis, which in turn reflects the degree of pulmonary fibrosis.
Prepare citric acid buffer: 120 g of sodium citrate, 12 mL of glacial acetic acid, 46 g of citric acid, 34 g of sodium hydroxide, dissolved in distilled water, adjust the pH to 6.0, and then dilute to 1000 mL.
Prepare 0.05 mol/L chloramine T solution: weigh 7.05 g of chloramine T, dissolve in 100 mL of distilled water, then add 150 mL of ethylene glycol, and add 250 mL of citric acid buffer to mix well.
Prepare p-dimethylaminobenzaldehyde: Reagent A: Take 20 mL of absolute ethanol, slowly add 2.74 mL of concentrated sulfuric acid; Reagent B: Take 12.0 g of p-dimethylaminobenzaldehyde, slowly add 40 mL of absolute ethanol. Heat in a water bath to completely dissolve and cool to room temperature, then slowly add the A solution to B and mix well.
Prepare a […] perchloric acid solution: take 27 mL of perchloric acid and dilute to 100 mL with distilled water.
The specific steps are as follows: collect the cells in a 1 mL water solution and lyse the cells using a homogenizer; adjust the pH to neutral, dilute to 3 mL, add activated carbon to centrifuge; take 1 mL supernatant, add 1 mL solution 1 (1 mL citrate buffer and 1 mL 0.05 mol/L chloramine T solution), stand for 10 minutes, add 1 mL of perchloric acid, stand for 5 minutes, add 1 mL of p-dimethylaminobenzaldehyde reagent, keep in 60° C. water bath for 15 minutes; centrifuge at 3500 rpm/min for 10 minutes, take the supernatant to measure the absorbance value at a wavelength of 550 nm.
The test was repeated 3 times independently, and the inhibition rate was calculated as follows: inhibition rate (%)=(1−experimental group absorbance/model group absorbance)×100%.

| Substance | effect on content of hydroxyproline in lung fibrosis model cells (FIG. 1-3), in words |
| --- | --- |
| Ile-Val-Arg-Arg-Ala-Asp-Arg-Ala-Ala-Val-Pro-Gly-Gly-Gly-Gly-Pro-(D-Pyr)-(D-Cys)-Bip-Arg-Gly-Glu-Gly-Gly-Gly-Gly-Arg-Gly-Asp [Polypeptide II] | can inhibit the content of hydroxyproline in lung fibrosis model cells |
| Pro-(D-Pyr)-(D-Cys)-Bip-Arg-Gly-Glu-Gly-Gly-Gly-Gly-Arg-Gly-Asp-Gly-Gly-Gly-Gly-Ile-Val-Arg-Arg-Ala-Asp-Arg-Ala-Ala-Val-Pro [Polypeptide VI] | can inhibit the content of hydroxyproline in lung fibrosis model cells |
| Pro-(D-Pyr)-(D-Cys)-Bip-Arg-Gly-Glu-Gly-Gly-Gly-Gly-Ile-Val-Arg-Arg-Ala-Asp-Arg-Ala-Ala-Val-Pro-Gly-Gly-Gly-Gly-Arg-Gly-Asp [Polypeptide I] | can inhibit the content of hydroxyproline in lung fibrosis model cells |

same assay, conditions: 4 uM, 48 hours

| Substance | Hydroxyproline Content Inhibition Rate in the Pulmonary Fibrosis Model |
| --- | --- |
| Ile-Val-Arg-Arg-Ala-Asp-Arg-Ala-Ala-Val-Pro-Gly-Gly-Gly-Gly-Pro-(D-Pyr)-(D-Cys)-Bip-Arg-Gly-Glu-Gly-Gly-Gly-Gly-Arg-Gly-Asp [Polypeptide II] | 31.28% |
| Pro-(D-Pyr)-(D-Cys)-Bip-Arg-Gly-Glu-Gly-Gly-Gly-Gly-Arg-Gly-Asp-Gly-Gly-Gly-Gly-Ile-Val-Arg-Arg-Ala-Asp-Arg-Ala-Ala-Val-Pro [Polypeptide VI] | 29.55% |
| Pro-(D-Pyr)-(D-Cys)-Bip-Arg-Gly-Glu-Gly-Gly-Gly-Gly-Ile-Val-Arg-Arg-Ala-Asp-Arg-Ala-Ala-Val-Pro-Gly-Gly-Gly-Gly-Arg-Gly-Asp [Polypeptide I] | 36.50% |

same assay, conditions: 8 uM, 48 hours

| Substance | Hydroxyproline Content Inhibition Rate in the Pulmonary Fibrosis Model |
| --- | --- |
| Ile-Val-Arg-Arg-Ala-Asp-Arg-Ala-Ala-Val-Pro-Gly-Gly-Gly-Gly-Pro-(D-Pyr)-(D-Cys)-Bip-Arg-Gly-Glu-Gly-Gly-Gly-Gly-Arg-Gly-Asp [Polypeptide II] | 57.35% |
| Pro-(D-Pyr)-(D-Cys)-Bip-Arg-Gly-Glu-Gly-Gly-Gly-Gly-Arg-Gly-Asp-Gly-Gly-Gly-Gly-Ile-Val-Arg-Arg-Ala-Asp-Arg-Ala-Ala-Val-Pro [Polypeptide VI] | 54.17% |
| Pro-(D-Pyr)-(D-Cys)-Bip-Arg-Gly-Glu-Gly-Gly-Gly-Gly-Ile-Val-Arg-Arg-Ala-Asp-Arg-Ala-Ala-Val-Pro-Gly-Gly-Gly-Gly-Arg-Gly-Asp [Polypeptide I] | 52.14% |

test system: Adenocarcinoma; test: MTT assay, lung cancer tumor cells; format: cell-based, human; design: concentration or dose not given beside the values; settings: 48 h, mean ± SD
Experimental: (§1) The inhibition of the growth of human lung cancer tumor cells by the polypeptide of the present invention was examined by MTT assay. The lung cancer tumor cells were cultured in a 37° C., 5% (volume fraction) CO2 incubator to a density of 90% or more, and collected by trypsinization. The cells were resuspended in the culture medium and counted under a microscope to adjust the cell concentration to 2.0×10^4 cells/mL, the cell suspension was inoculated into a 96-well plate at 100 μL per well, and cultured overnight at 37° C. in a 5% (volume fraction) CO2 incubator. After the cells were completely adhered, the polypeptide of the present invention was added as a drug-administered group, and a culture solution containing no drug was used as a blank control group, and the culture solution was diluted to each predetermined concentration. Each dilution was separately added to a 96-well plate at 100 μL per well and incubated for 48 h at 37° C. in a 5% (volume fraction) CO2 incubator. 20 μL of 5 mg/mL MTT was added to each well of a 96-well plate, and incubation was continued for 4 hours. The medium was aspirated, and the cells were dissolved in 100 μL of DMSO per well. The absorbance was measured by a microplate reader at a detection wavelength of 570 nm and a reference wavelength of 630 nm, and the growth inhibition rate was calculated as follows: tumor growth inhibition rate (%)=(1−administered group absorbance value/unadministered group absorbance value)×100%, and the experiment was repeated 3 times independently. The results obtained by the test were expressed as mean±standard deviation. The results in Table 6 indicate that the polypeptides of the present invention have a good inhibitory effect on proliferation of a variety of human lung cancer tumors (FIG. 5).

| Substance | tumor growth inhibition rate, MTT Assay |
| --- | --- |
| Ile-Val-Arg-Arg-Ala-Asp-Arg-Ala-Ala-Val-Pro-Gly-Gly-Gly-Gly-Pro-(D-Pyr)-(D-Cys)-Bip-Arg-Gly-Glu-Gly-Gly-Gly-Gly-Arg-Gly-Asp [Polypeptide II] | 86.03 ± 15.85% |
| Pro-(D-Pyr)-(D-Cys)-Bip-Arg-Gly-Glu-Gly-Gly-Gly-Gly-Arg-Gly-Asp-Gly-Gly-Gly-Gly-Ile-Val-Arg-Arg-Ala-Asp-Arg-Ala-Ala-Val-Pro [Polypeptide VI] | 78.80 ± 13.47% |
| Pro-(D-Pyr)-(D-Cys)-Bip-Arg-Gly-Glu-Gly-Gly-Gly-Gly-Ile-Val-Arg-Arg-Ala-Asp-Arg-Ala-Ala-Val-Pro-Gly-Gly-Gly-Gly-Arg-Gly-Asp [Polypeptide I] | 65.67 ± 13.74% |

test system: Adenosquamous carcinoma; test: MTT assay, lung cancer tumor cells; format: cell-based, human; design: concentration or dose not given beside the values; settings: 48 h, mean ± SD
Experimental: as §1

| Substance | tumor growth inhibition rate, MTT Assay |
| --- | --- |
| Ile-Val-Arg-Arg-Ala-Asp-Arg-Ala-Ala-Val-Pro-Gly-Gly-Gly-Gly-Pro-(D-Pyr)-(D-Cys)-Bip-Arg-Gly-Glu-Gly-Gly-Gly-Gly-Arg-Gly-Asp [Polypeptide II] | 58.73 ± 10.82% |
| Pro-(D-Pyr)-(D-Cys)-Bip-Arg-Gly-Glu-Gly-Gly-Gly-Gly-Arg-Gly-Asp-Gly-Gly-Gly-Gly-Ile-Val-Arg-Arg-Ala-Asp-Arg-Ala-Ala-Val-Pro [Polypeptide VI] | 53.80 ± 12.33% |
| Pro-(D-Pyr)-(D-Cys)-Bip-Arg-Gly-Glu-Gly-Gly-Gly-Gly-Ile-Val-Arg-Arg-Ala-Asp-Arg-Ala-Ala-Val-Pro-Gly-Gly-Gly-Gly-Arg-Gly-Asp [Polypeptide I] | 44.84 ± 12.58% |

test system: Large cell lung cancer; test: MTT assay, lung cancer tumor cells; format: cell-based, human; design: concentration or dose not given beside the values; settings: 48 h, mean ± SD
Experimental: as §1

| Substance | tumor growth inhibition rate, MTT Assay |
| --- | --- |
| Ile-Val-Arg-Arg-Ala-Asp-Arg-Ala-Ala-Val-Pro-Gly-Gly-Gly-Gly-Pro-(D-Pyr)-(D-Cys)-Bip-Arg-Gly-Glu-Gly-Gly-Gly-Gly-Arg-Gly-Asp [Polypeptide II] | 86.28 ± 15.90% |
| Pro-(D-Pyr)-(D-Cys)-Bip-Arg-Gly-Glu-Gly-Gly-Gly-Gly-Arg-Gly-Asp-Gly-Gly-Gly-Gly-Ile-Val-Arg-Arg-Ala-Asp-Arg-Ala-Ala-Val-Pro [Polypeptide VI] | 79.04 ± 14.36% |
| Pro-(D-Pyr)-(D-Cys)-Bip-Arg-Gly-Glu-Gly-Gly-Gly-Gly-Ile-Val-Arg-Arg-Ala-Asp-Arg-Ala-Ala-Val-Pro-Gly-Gly-Gly-Gly-Arg-Gly-Asp [Polypeptide I] | 65.87 ± 14.65% |

test system: Non-small cell lung cancer; test: MTT assay, lung cancer tumor cells; format: cell-based, human; design: concentration or dose not given beside the values; settings: 48 h, mean ± SD
Experimental: as §1

| Substance | tumor growth inhibition rate, MTT Assay |
| --- | --- |
| Ile-Val-Arg-Arg-Ala-Asp-Arg-Ala-Ala-Val-Pro-Gly-Gly-Gly-Gly-Pro-(D-Pyr)-(D-Cys)-Bip-Arg-Gly-Glu-Gly-Gly-Gly-Gly-Arg-Gly-Asp [Polypeptide II] | 90.88 ± 16.75% |
| Pro-(D-Pyr)-(D-Cys)-Bip-Arg-Gly-Glu-Gly-Gly-Gly-Gly-Arg-Gly-Asp-Gly-Gly-Gly-Gly-Ile-Val-Arg-Arg-Ala-Asp-Arg-Ala-Ala-Val-Pro [Polypeptide VI] | 83.25 ± 17.67% |
| Pro-(D-Pyr)-(D-Cys)-Bip-Arg-Gly-Glu-Gly-Gly-Gly-Gly-Ile-Val-Arg-Arg-Ala-Asp-Arg-Ala-Ala-Val-Pro-Gly-Gly-Gly-Gly-Arg-Gly-Asp [Polypeptide I] | 69.38 ± 18.03% |

test system: Small Cell Lung Cancer; test: MTT assay, lung cancer tumor cells; format: cell-based, human; design: concentration or dose not given beside the values; settings: 48 h, mean ± SD
Experimental: as §1

| Substance | tumor growth inhibition rate, MTT Assay |
| --- | --- |
| Ile-Val-Arg-Arg-Ala-Asp-Arg-Ala-Ala-Val-Pro-Gly-Gly-Gly-Gly-Pro-(D-Pyr)-(D-Cys)-Bip-Arg-Gly-Glu-Gly-Gly-Gly-Gly-Arg-Gly-Asp [Polypeptide II] | 69.03 ± 12.72% |
| Pro-(D-Pyr)-(D-Cys)-Bip-Arg-Gly-Glu-Gly-Gly-Gly-Gly-Arg-Gly-Asp-Gly-Gly-Gly-Gly-Ile-Val-Arg-Arg-Ala-Asp-Arg-Ala-Ala-Val-Pro [Polypeptide VI] | 63.23 ± 12.96% |
| Pro-(D-Pyr)-(D-Cys)-Bip-Arg-Gly-Glu-Gly-Gly-Gly-Gly-Ile-Val-Arg-Arg-Ala-Asp-Arg-Ala-Ala-Val-Pro-Gly-Gly-Gly-Gly-Arg-Gly-Asp [Polypeptide I] | 52.70 ± 13.22% |

test system: Squamous cell carcinoma; test: MTT assay, lung cancer tumor cells; format: cell-based, human; design: concentration or dose not given beside the values; settings: 48 h, mean ± SD
Experimental: as §1

| Substance | tumor growth inhibition rate, MTT Assay |
| --- | --- |
| Ile-Val-Arg-Arg-Ala-Asp-Arg-Ala-Ala-Val-Pro-Gly-Gly-Gly-Gly-Pro-(D-Pyr)-(D-Cys)-Bip-Arg-Gly-Glu-Gly-Gly-Gly-Gly-Arg-Gly-Asp [Polypeptide II] | 65.14 ± 12.00% |
| Pro-(D-Pyr)-(D-Cys)-Bip-Arg-Gly-Glu-Gly-Gly-Gly-Gly-Arg-Gly-Asp-Gly-Gly-Gly-Gly-Ile-Val-Arg-Arg-Ala-Asp-Arg-Ala-Ala-Val-Pro [Polypeptide VI] | 59.67 ± 9.56% |
| Pro-(D-Pyr)-(D-Cys)-Bip-Arg-Gly-Glu-Gly-Gly-Gly-Gly-Ile-Val-Arg-Arg-Ala-Asp-Arg-Ala-Ala-Val-Pro-Gly-Gly-Gly-Gly-Arg-Gly-Asp [Polypeptide I] | 49.73 ± 9.76% |
